Columns and labels:
[1] = test system: ectopic bone formation in RARγ-null mice; experiment: Ectopic bone formation model in RARγ-null mice; type: in vivo, mouse; details: N=8
Procedure: To verify specificity of this drug action, similar ectopic bone formation experiments were carried out with RARγ-null mice treated with vehicle or one of the antagonists (CD2665) (FIG. 13E).

[2] = Hydrophobicity of acetaminophen-capped prodrug derivative versus parent; type: physicochemical; details: acetaminophen-capped derivative vs parent retinoid
Source text: In order to produce an in situ activatable, reversibly hydrophobized prodrug derivatives of a RARγ agonist, a pro-drug can be delivered in a nanoparticle formulation. […] However, the ionizable carboxylic group promotes the partitioning of the compound from the particle to the surrounding aqueous medium. […] The compound would be activatable upon release can increase the stability of the particle-cargo association and help achieve a more lasting and highly localized therapeutic effect. Such constructs are in essence mutual prodrugs or co-drugs, as they regenerate in one step the retinoid compound and acetaminophen, a biologically active “helper” agent, which can play an important supporting role in therapy.

more hydrophobic derivative if modified with acetaminophen [2] [fold]	SMILES	ectopic bone formation in RARγ-null mice, drug vs vehicle [1]
	COCCOCOc1cc2ccc(-c3ccc(C(=O)O)cc3)cc2cc1C12CC3CC(CC(C3)C1)C2 [CD2665]	No significant differences in bone formation
5	CC1(C)CCC(C)(C)c2cc(C3(c4ccc5cc(C(=O)O)ccc5c4)SCCS3)ccc21 [MM11253]	

Source: US11833256B2, “Selective RARγ ligand-loaded nanoparticles for manipulation of targeted bone growth” (University Of Maryland, Baltimore, priority 2017, dated 2023)
